Measured values taken from PubChem BioAssay (NCI).
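Each compound was tested at five concentrations against cells in 96-well plates for 48 hours. GI50 marks 50% less growth. TGI is the concentration that stops growth completely.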

Assays:
Assay in all cases: NCI anticancer screen, dose series, 48 h
UACC-257 melanoma = system: UACC-257 melanoma
ACHN renal = system: ACHN renal
NCI-H460 lung = system: NCI-H460 lung
HL-60(TB) leukemia = system: HL-60(TB) leukemia
CCRF-CEM leukemia = system: CCRF-CEM leukemia
786-0 renal = system: 786-0 renal
SR leukemia = system: SR leukemia
MDA-MB-435 = system: MDA-MB-435
HOP-92 NSCLC = system: HOP-92 NSCLC
CAKI-1 renal = system: CAKI-1 renal
HCT-116 colon = system: HCT-116 colon
OVCAR-4 ovarian = system: OVCAR-4 ovarian
SNB-75 CNS = system: SNB-75 CNS
NCI-H522 lung = system: NCI-H522 lung
SK-MEL-2 melanoma = system: SK-MEL-2 melanoma

| SMILES | TGI (UACC-257 melanoma) [µM] | TGI (ACHN renal) [µM] | TGI (NCI-H460 lung) [µM] | TGI (HL-60(TB) leukemia) [µM] | TGI (CCRF-CEM leukemia) [µM] | TGI (786-0 renal) [µM] | TGI (SR leukemia) [µM] | TGI (MDA-MB-435) [µM] | TGI (HOP-92 NSCLC) [µM] | TGI (CAKI-1 renal) [µM] | TGI (HCT-116 colon) [µM] | TGI (OVCAR-4 ovarian) [µM] | TGI (SNB-75 CNS) [µM] | TGI (NCI-H522 lung) [µM] | TGI (SK-MEL-2 melanoma) [µM] | GI50 (SR leukemia) [µM] |
| --- | --- | --- | --- | --- | --- | --- | --- | --- | --- | --- | --- | --- | --- | --- | --- | --- |
| N#Cc1ccccc1NC(=O)C(O)C(O)C(O)C(O)C=O (stereo not drawn) | > 100 | > 100 | > 100 | > 100 | > 100 | > 100 | > 100 | > 100 | > 100 | > 100 | > 100 | > 100 | > 100 | > 100 | > 100 |  |
| CC1=NN(c2nc(N)nc(CCl)n2)C(C)(C)C1 | > 100 | 31 | 36.2 | > 24.9 | > 52.7 | 15.9 | > 69.7 | > 100 | 45.7 | 9.27 | > 70.1 | 27 | > 75.6 | 2.94 | > 100 |  |
| COC(=O)/C=C1\C(=O)Nc2ccc(Br)cc21 | 3.07 | 3.36 | 5.05 | 3.92 | 1.17 | 3.05 | 1.56 | 4.76 | 4.92 | 3.87 | 2.64 | 5.84 | 3.87 | 2.34 | 1.77 |  |
| COC(=O)c1ccc(C)cc1C1CN=NC12Cc1c(C)cccc1C2=O (stereo not drawn) | > 81.8 | > 100 | > 100 | 71.1 | > 100 | > 100 | > 80.2 | > 71.2 | 97 | > 100 | > 86.9 | > 93.9 | > 100 | 97.4 | 98.3 |  |
| NC(N)=N/N=C/c1c(Cl)nc2n1CCS2 | > 100 | > 100 | > 100 | > 100 | > 100 | > 100 | > 100 | > 100 | > 100 | > 100 | 73.7 | > 100 | > 100 | > 100 | > 100 |  |
| CN(C)/C=N/S(=O)(=O)c1nn2c(C=O)c(-c3ccc(-c4ccccc4)cc3)nc2s1 | 9.31 | 3.18 | 13.7 | 0.342 | 0.647 | 2.99 | 1.89 | 4.8 | 10.1 | 2.88 | 2.99 | 4.24 | 18.3 | 1.6 | 8.24 |  |
| COP(=O)(OC)[C@@](O)(c1ccccc1)[C@@H](O)[C@@H](O)c1ccccc1 | > 100 | > 100 | > 100 | > 100 | 50.9 | > 100 | 1.91 | > 100 | > 100 | > 100 | > 100 | > 100 | > 100 | > 100 | > 100 |  |
| CCSc1c2cc(OC)ccc2nc2ccc(OC)cc12 | 30.4 | > 87.4 | 60.4 | > 100 | > 42.9 | > 61 | > 23.5 | > 57.7 | > 100 | 45.4 | > 47.8 | > 75.8 | 40.3 | > 48.2 | 48.7 |  |
| CCc1n[nH]c(=O)n1N | > 100 | > 100 | > 100 | > 100 | > 100 | > 100 | > 100 | > 100 | > 100 | > 100 | > 100 | > 100 | > 100 | > 100 | > 100 |  |
| Cc1ccccc1-n1c(=O)nc2n(-c3ccc(C(C)(C)C)cc3)c3ccccc3cc-2c1=O | 37.1 | > 100 | 28.7 | 43.2 | 50.5 | 69.9 | 59.7 | 27.9 | 50.1 | 71.4 | 28.8 | 92.5 | 66.3 | 47.6 | 34.8 |  |
| CC1(c2cccc(C(F)(F)F)c2)CC(c2cccc(C(F)(F)F)c2)=C(C#N)C(=C(C#N)C#N)N1 (stereo not drawn) | 31.7 | 31 | 45.8 | 35.1 | 24.1 | 31.2 | 30 | 32.6 | 10.6 | 33.3 | 29.2 | 30.8 | 33.6 |  | 41.1 |  |
| CC(=O)O[C@H]1[C@@H](N2CCCCC2)C[C@H]2[C@@H]3CC=C4C[C@@H](N5CCCC5)CC[C@]4(C)[C@H]3CC[C@@]21C | 87.7 | > 100 | > 100 | > 100 | > 100 | > 100 | 8.96 | > 100 | > 100 | > 100 | > 100 | > 100 | > 100 | > 100 | > 100 |  |
| N=c1oc2ccccc2cc1C(=O)Nc1ccccn1 | > 100 | > 100 | > 100 | > 100 | > 100 | > 100 | > 100 | > 100 | > 100 | > 100 | > 100 | > 100 | > 100 |  | > 100 |  |
| CSc1cc(Cl)c(C(=O)Nc2ccccc2)cc1S(=O)(=O)n1cc[nH]c1=O | > 100 | > 100 | > 100 | > 100 | > 100 | > 100 | > 100 | > 100 | > 100 | > 100 | > 100 | > 100 | > 100 | > 100 | > 100 |  |
| N#Cc1ccc(N=NN2CCCC2)cc1 | > 100 | > 100 | > 100 | > 100 | > 100 | > 100 | > 100 | > 100 | > 100 | > 100 | > 100 | > 100 | > 100 | > 100 | > 100 |  |
| Cc1cc(NS(=O)(=O)c2ccc(NC(=O)c3ccc4nc5ccccc5c(Nc5ccc(S(N)(=O)=O)cc5)c4c3)cc2)no1 | 57.8 | 45.6 | 53.1 | 56.2 | 78.3 | 30.8 | 73.4 | 45.3 | 78.3 | > 100 | 63.2 | 89.9 | 94.7 | 37.7 | 73.3 |  |
| C#CCNC(CCCN=C(N)N)C(=O)O (stereo not drawn) | > 100 | > 100 | > 100 | > 100 | > 100 | > 100 | > 100 | > 100 | > 100 | > 100 | > 100 | > 100 | > 100 | > 100 | > 100 |  |
| Cc1ccc2c(n1)C(=O)c1cc(C)c(C)cc1C2=O | > 100 | > 100 | > 100 | > 100 | > 100 | > 100 | 85.1 | > 100 | > 100 | > 100 | > 100 | > 100 | 73 | 56.8 | > 100 |  |
| c1ccc([P+](Cc2ccc(C[P+](c3ccccc3)(c3ccccc3)c3ccccc3)s2)(c2ccccc2)c2ccccc2)cc1 | > 100 | > 100 | > 100 | > 100 | > 100 | > 100 | > 100 | > 100 | > 100 | > 100 | > 100 | > 100 | > 100 | > 100 | > 100 |  |
| CCc1cn(C2CC(CO)C(CO)S2)c(=O)[nH]c1=O (stereo not drawn) | > 100 | > 100 |  | > 100 | > 100 | > 100 | > 100 | > 100 | > 100 | > 100 | > 100 | > 100 | > 100 | > 100 | > 100 | > 100 |
| CCc1cccc(CC)c1Nc1nc(-c2ccccc2-c2ccccc2)cs1 | > 100 | > 100 | > 100 | > 100 | > 100 | > 100 | > 100 | > 100 | > 100 | > 100 | > 100 | > 100 | > 100 | > 100 | > 100 |  |
| NC(N)=NS(=O)(=O)c1ccc(NCc2cccc3c(=O)c4ccc(Cl)cc4oc23)cc1 | > 25 | > 13.6 | 7.3 | 5.94 | > 7.9 | > 12.9 | > 25 | > 25 | 17.8 | > 15 | > 22.4 | > 18 | 8.64 | > 7.85 | > 16.7 |  |
| CC(C)(C)c1cc(C(C)(C)C)c(SSc2c(C(C)(C)C)cc(C(C)(C)C)c(O)c2O)c(O)c1O | 21.7 | 26.6 | 13.2 | 14.6 | 7.5 | 19.2 | 10.4 | 17.2 | 31.9 | 23.7 | 23.2 | 15.5 | 41.9 | 16.6 | 28.4 |  |
